# Data published in BindingDB's records for doi:10.1021/jm00111a027 (Merck Sharp & Dohme Research Laboratories, 1991).
# Non-standard residues stand in square brackets, D forms with d. Residues, ends and D or L forms follow the SMILES beside them. *: point of attachment. NH(2-Me-nonan-4R-yl) = CCCCC[C@H](CC(C)C)N*; X11 = CCCCC[C@@H](CC(C)C)N*; Leu(ol) = CC(C)C[C@H](N)CO; X4 = CCCCCC[C@H](CC(C)C)N*; X8 = CCCC[C@@H](CC(C)C)N*; X9 = CCC[C@@H](CC(C)C)N*; X3 = COC[C@H](CC(C)C)N*; X6 = CCC[C@H](CC(C)C)N*; Piv = CC(C)(C)C(=O)*; X7 = CCCC(CCC)N*
# Test: Compound was evaluated for mitogenic inhibition against Swiss 3T3 murine fibroblast cells.
row,SMILES,IC50
1,CCOC(=O)[C@H](CC(C)C)NC(=O)[C@H](Cc1c[nH]cn1)NC(=O)CNC(=O)[C@@H](NC(=O)[C@H](C)NC(=O)[C@H](Cc1c[nH]c2ccccc12)NC(=O)[C@H](Cc1c[nH]cn1)NC(C)=O)C(C)C [2-[2-[2-(2-{2-[2-[2-Acetylamino-3-(3H-imidazol-4-yl)-propionylamino]-3-(1H-indol-3-yl)-propionylamino]-propionylamino}-3-methyl-butyrylamino)-acetylamino]-3-(3H-imidazol-4-yl)-propionylamino]-4-methyl-pentanoic acid ethyl ester] (Ac-HWAVGHL-OEt),0.02 µM
2,"CCCCC[C@H](CC(C)C)NC(=O)[C@H](Cc1cnc[nH]1)NC(=O)CNC(=O)[C@@H](NC(=O)[C@H](C)NC(=O)[C@H](Cc1c[nH]c2ccccc12)NC(=O)[C@H](Cc1cnc[nH]1)NC(=O)C(C)(C)C)C(C)C [2-{2-[2-[2-(2,2-Dimethyl-propionylamino)-3-(3H-imidazol-4-yl)-propionylamino]-3-(1H-indol-3-yl)-propionylamino]-propionylamino}-N-{[2-(3H-imidazol-4-yl)-1-(1-isobutyl-hexylcarbamoyl)-ethylcarbamoyl]-methyl}-3-methyl-butyramide] (Piv-HWAVGH-{NH(2-Me-nonan-4R-yl)})",0.0006 µM
3,CCOC[C@H](CC(C)C)NC(=O)[C@H](Cc1c[nH]cn1)NC(=O)[C@H](C)NC(=O)[C@@H](NC(=O)[C@H](C)NC(=O)[C@H](Cc1c[nH]c2ccccc12)NC(=O)[C@H](Cc1c[nH]cn1)NC(C)=O)C(C)C [2-{2-[2-[2-Acetylamino-3-(3H-imidazol-4-yl)-propionylamino]-3-(1H-indol-3-yl)-propionylamino]-propionylamino}-N-{1-[1-(1-ethoxymethyl-3-methyl-butylcarbamoyl)-2-(3H-imidazol-4-yl)-ethylcarbamoyl]-ethyl}-3-methyl-butyramide],> 0.3 µM
4,CC(=O)N[C@@H](Cc1c[nH]cn1)C(=O)N[C@@H](Cc1c[nH]c2ccccc12)C(=O)N[C@@H](C)C(=O)N[C@H](C(=O)NCC(=O)N[C@@H](Cc1c[nH]cn1)C(=O)N[C@H](CO)CC(C)C)C(C)C [2-{2-[2-[2-Acetylamino-3-(3H-imidazol-4-yl)-propionylamino]-3-(1H-indol-3-yl)-propionylamino]-propionylamino}-N-{[1-(1-hydroxymethyl-3-methyl-butylcarbamoyl)-2-(3H-imidazol-4-yl)-ethylcarbamoyl]-methyl}-3-methyl-butyramide] (Ac-HWAVGH[Leu(ol)]),0.3 µM
5,CCCCCC[C@H](CC(C)C)NC(=O)[C@H](Cc1cnc[nH]1)NC(=O)CNC(=O)[C@@H](NC(=O)[C@H](C)NC(=O)[C@H](Cc1c[nH]c2ccccc12)NC(=O)[C@H](Cc1cnc[nH]1)NC(C)=O)C(C)C [2-{2-[2-[2-Acetylamino-3-(3H-imidazol-4-yl)-propionylamino]-3-(1H-indol-3-yl)-propionylamino]-propionylamino}-N-{[2-(3H-imidazol-4-yl)-1-(1-isobutyl-heptylcarbamoyl)-ethylcarbamoyl]-methyl}-3-methyl-butyramide] (Ac-HWAVGH-X4),0.007 µM
6,CCCCC[C@@H](CC(C)C)NC(=O)[C@H](Cc1cnc[nH]1)NC(=O)CNC(=O)[C@@H](NC(=O)[C@H](C)NC(=O)[C@H](Cc1c[nH]c2ccccc12)NC(=O)[C@H](Cc1cnc[nH]1)NC(C)=O)C(C)C [2-{2-[2-[2-Acetylamino-3-(3H-imidazol-4-yl)-propionylamino]-3-(1H-indol-3-yl)-propionylamino]-propionylamino}-N-{[2-(3H-imidazol-4-yl)-1-(1-isobutyl-hexylcarbamoyl)-ethylcarbamoyl]-methyl}-3-methyl-butyramide] (Ac-HWAVGH-X11),0.022 µM
7,CCCCC[C@H](CC(C)C)NC(=O)[C@H](Cc1cnc[nH]1)NC(=O)CNC(=O)[C@@H](NC(=O)[C@H](C)NC(=O)[C@H](Cc1c[nH]c2ccccc12)NC(=O)[C@H](Cc1cnc[nH]1)NC(C)=O)C(C)C [2-{2-[2-[2-Acetylamino-3-(3H-imidazol-4-yl)-propionylamino]-3-(1H-indol-3-yl)-propionylamino]-propionylamino}-N-{[2-(3H-imidazol-4-yl)-1-(1-isobutyl-hexylcarbamoyl)-ethylcarbamoyl]-methyl}-3-methyl-butyramide] (Ac-HWAVGH-{NH(2-Me-nonan-4R-yl)}),0.004 µM
8,CCCC[C@@H](CC(C)C)NC(=O)[C@H](Cc1c[nH]cn1)NC(=O)CNC(=O)[C@@H](NC(=O)[C@H](C)NC(=O)[C@H](Cc1c[nH]c2ccccc12)NC(=O)[C@H](Cc1c[nH]cn1)NC(C)=O)C(C)C [2-{2-[2-[2-Acetylamino-3-(3H-imidazol-4-yl)-propionylamino]-3-(1H-indol-3-yl)-propionylamino]-propionylamino}-N-{[2-(3H-imidazol-4-yl)-1-(1-isobutyl-pentylcarbamoyl)-ethylcarbamoyl]-methyl}-3-methyl-butyramide] (Ac-HWAVGH-X8),0.006 µM
9,COC[C@H](CC(C)C)NC(=O)[C@H](Cc1c[nH]cn1)NC(=O)CNC(=O)[C@@H](NC(=O)[C@H](C)NC(=O)[C@H](Cc1c[nH]c2ccccc12)NC(=O)[C@H](Cc1c[nH]cn1)NC(C)=O)C(C)C [2-{2-[2-[2-Acetylamino-3-(3H-imidazol-4-yl)-propionylamino]-3-(1H-indol-3-yl)-propionylamino]-propionylamino}-N-{[2-(3H-imidazol-4-yl)-1-(1-methoxymethyl-3-methyl-butylcarbamoyl)-ethylcarbamoyl]-methyl}-3-methyl-butyramide] (Ac-HWAVGH-X3),0.091 µM
10,CCCC(CCC)NC(=O)[C@H](Cc1cnc[nH]1)NC(=O)CNC(=O)[C@@H](NC(=O)[C@H](C)NC(=O)[C@H](Cc1c[nH]c2ccccc12)NC(=O)[C@H](Cc1cnc[nH]1)NC(C)=O)C(C)C [2-{2-[2-[2-Acetylamino-3-(3H-imidazol-4-yl)-propionylamino]-3-(1H-indol-3-yl)-propionylamino]-propionylamino}-N-{[2-(3H-imidazol-4-yl)-1-(1-propyl-butylcarbamoyl)-ethylcarbamoyl]-methyl}-3-methyl-butyramide] (Ac-HWAVGH-X7),0.08 µM
11,CCC[C@H](CC(C)C)NC(=O)[C@H](Cc1cnc[nH]1)NC(=O)CNC(=O)[C@@H](NC(=O)[C@H](C)NC(=O)[C@H](Cc1c[nH]c2ccccc12)NC(=O)[C@H](Cc1cnc[nH]1)NC(C)=O)C(C)C [2-{2-[2-[2-Acetylamino-3-(3H-imidazol-4-yl)-propionylamino]-3-(1H-indol-3-yl)-propionylamino]-propionylamino}-N-{[2-(3H-imidazol-4-yl)-1-(3-methyl-1-propyl-butylcarbamoyl)-ethylcarbamoyl]-methyl}-3-methyl-butyramide] (Ac-HWAVGH-X6),0.01 µM
12,CCC[C@@H](CC(C)C)NC(=O)[C@H](Cc1cnc[nH]1)NC(=O)CNC(=O)[C@@H](NC(=O)[C@H](C)NC(=O)[C@H](Cc1c[nH]c2ccccc12)NC(=O)[C@H](Cc1cnc[nH]1)NC(C)=O)C(C)C [2-{2-[2-[2-Acetylamino-3-(3H-imidazol-4-yl)-propionylamino]-3-(1H-indol-3-yl)-propionylamino]-propionylamino}-N-{[2-(3H-imidazol-4-yl)-1-(3-methyl-1-propyl-butylcarbamoyl)-ethylcarbamoyl]-methyl}-3-methyl-butyramide] (Ac-HWAVGH-X9),0.035 µM
